Measured values: PubChem BioAssay (NCI)
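GI50 = concentration required for 50% inhibition of growth. At the TGI there is no net growth.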

Legend:
Assay in all cases: NCI tumour cell line growth inhibition, 384-well format
SK-OV-3 ovarian = system: SK-OV-3 ovarian
SNB-75 CNS = system: SNB-75 CNS
SF-295 CNS = system: SF-295 CNS
PC-3 prostate = system: PC-3 prostate
HCT-116 colon = system: HCT-116 colon
SK-MEL-28 melanoma = system: SK-MEL-28 melanoma
MALME-3M melanoma = system: MALME-3M melanoma
OVCAR-5 ovarian = system: OVCAR-5 ovarian
NCI-H23 lung = system: NCI-H23 lung
TK-10 renal = system: TK-10 renal
SK-MEL-2 melanoma = system: SK-MEL-2 melanoma
EKVX NSCLC = system: EKVX NSCLC
OVCAR-3 ovarian = system: OVCAR-3 ovarian
DU-145 prostate = system: DU-145 prostate
NCI-H322M lung = system: NCI-H322M lung
A549 NSCLC = system: A549 NSCLC
ACHN renal = system: ACHN renal
RPMI-8226 leukemia = system: RPMI-8226 leukemia
HL-60(TB) leukemia = system: HL-60(TB) leukemia
SF-539 CNS = system: SF-539 CNS
K-562 leukemia = system: K-562 leukemia
NCI-H460 NSCLC = system: NCI-H460 NSCLC
HCT-15 colon = system: HCT-15 colon
OVCAR-8 ovarian = system: OVCAR-8 ovarian
786-0 renal = system: 786-0 renal
OVCAR-4 ovarian = system: OVCAR-4 ovarian
HOP-62 NSCLC = system: HOP-62 NSCLC
T-47D breast = system: T-47D breast
MOLT-4 leukemia = system: MOLT-4 leukemia
COLO 205 colon = system: COLO 205 colon
HS 578T breast = system: HS 578T breast
A498 renal = system: A498 renal
HOP-92 NSCLC = system: HOP-92 NSCLC
UACC-257 melanoma = system: UACC-257 melanoma
CAKI-1 renal = system: CAKI-1 renal
MDA-MB-435 melanoma = system: MDA-MB-435 melanoma
SW-620 colon = system: SW-620 colon
U251 glioblastoma = system: U251 glioblastoma
M14 melanoma = system: M14 melanoma
SK-MEL-5 melanoma = system: SK-MEL-5 melanoma
HT29 colon = system: HT29 colon
SNB-19 CNS = system: SNB-19 CNS
IGROV1 ovarian = system: IGROV1 ovarian
SF-268 CNS = system: SF-268 CNS
BT-549 breast = system: BT-549 breast
SN12C renal = system: SN12C renal
KM12 colon = system: KM12 colon
NCI/ADR-RES ovarian = system: NCI/ADR-RES ovarian
UACC-62 melanoma = system: UACC-62 melanoma
MCF7 breast = system: MCF7 breast
LOX IMVI melanoma = system: LOX IMVI melanoma
MDA-MB-231 breast = system: MDA-MB-231 breast
HCC-2998 colon = system: HCC-2998 colon
CCRF-CEM leukemia = system: CCRF-CEM leukemia
MDA-MB-468 breast = system: MDA-MB-468 breast
NCI-H226 lung = system: NCI-H226 lung
UO-31 renal = system: UO-31 renal
NCI-H522 lung = system: NCI-H522 lung
RXF 393 renal = system: RXF 393 renal

## CCNC(=O)Nc1ccc(-c2nc3c(c(N4CCOC[C@@H]4C)n2)CCN(C2COC2)C3)cc1
SK-OV-3 ovarian
  GI50: 189 nM
  TGI: 5370 nM
SNB-75 CNS
  GI50: 46.2 nM
  TGI: 980 nM
SF-295 CNS
  GI50: 305 nM
  TGI: 2540 nM
PC-3 prostate
  GI50: 218 nM
  TGI: > 100000 nM
HCT-116 colon
  GI50: 3280 nM
  TGI: > 100000 nM
SK-MEL-28 melanoma
  GI50: 443 nM
  TGI: 28000 nM
MALME-3M melanoma
  GI50: 167 nM
  TGI: 3020 nM
OVCAR-5 ovarian
  GI50: 1040 nM
  TGI: > 100000 nM
NCI-H23 lung
  GI50: 1910 nM
  TGI: > 100000 nM
TK-10 renal
  GI50: 390 nM
  TGI: 5650 nM
SK-MEL-2 melanoma
  GI50: 1890 nM
  TGI: 7590 nM
EKVX NSCLC
  GI50: 381 nM
  TGI: 9360 nM
OVCAR-3 ovarian
  GI50: 445 nM
  TGI: > 100000 nM
DU-145 prostate
  GI50: 640 nM
  TGI: > 100000 nM
NCI-H322M lung
  GI50: 527 nM
  TGI: > 100000 nM
A549 NSCLC
  GI50: 480 nM
  TGI: > 100000 nM
ACHN renal
  GI50: 485 nM
  TGI: > 100000 nM
RPMI-8226 leukemia
  GI50: 38.7 nM
  TGI: 276 nM
HL-60(TB) leukemia
  GI50: 5400 nM
  TGI: > 100000 nM
SF-539 CNS
  GI50: 656 nM
  TGI: > 100000 nM
K-562 leukemia
  GI50: 752 nM
  TGI: > 100000 nM
NCI-H460 NSCLC
  GI50: 108 nM
  TGI: > 100000 nM
HCT-15 colon
  GI50: 669 nM
  TGI: > 100000 nM
OVCAR-8 ovarian
  GI50: 966 nM
  TGI: > 100000 nM
786-0 renal
  GI50: 1190 nM
  TGI: > 100000 nM
OVCAR-4 ovarian
  GI50: 279 nM
  TGI: 3450 nM
HOP-62 NSCLC
  GI50: 494 nM
  TGI: 11000 nM
T-47D breast
  GI50: 26.3 nM
  TGI: 437 nM
MOLT-4 leukemia
  GI50: 207 nM
  TGI: 11100 nM
COLO 205 colon
  GI50: 347 nM
  TGI: > 100000 nM
HS 578T breast
  GI50: 116 nM
  TGI: 596 nM
A498 renal
  GI50: 93.8 nM
  TGI: 1900 nM
HOP-92 NSCLC
  GI50: 605 nM
  TGI: 8680 nM
UACC-257 melanoma
  GI50: 1450 nM
  TGI: 14600 nM
CAKI-1 renal
  GI50: 323 nM
  TGI: 4100 nM
MDA-MB-435 melanoma
  GI50: 716 nM
  TGI: 7410 nM
SW-620 colon
  GI50: 2280 nM
  TGI: > 100000 nM
U251 glioblastoma
  GI50: 1350 nM
  TGI: > 100000 nM
M14 melanoma
  GI50: 416 nM
  TGI: > 100000 nM
SK-MEL-5 melanoma
  GI50: 221 nM
  TGI: 2260 nM
HT29 colon
  GI50: 4780 nM
  TGI: > 100000 nM
SNB-19 CNS
  GI50: 2820 nM
  TGI: > 100000 nM
IGROV1 ovarian
  GI50: 147 nM
  TGI: 885 nM
SF-268 CNS
  GI50: 1220 nM
  TGI: > 100000 nM
BT-549 breast
  GI50: 220 nM
  TGI: 2560 nM
SN12C renal
  GI50: 310 nM
  TGI: > 100000 nM
KM12 colon
  GI50: 479 nM
  TGI: > 100000 nM
NCI/ADR-RES ovarian
  GI50: 11400 nM
  TGI: > 100000 nM
UACC-62 melanoma
  GI50: 366 nM
  TGI: 3810 nM
MCF7 breast
  GI50: 131 nM
  TGI: 68600 nM
LOX IMVI melanoma
  GI50: 658 nM
  TGI: 13800 nM
MDA-MB-231 breast
  GI50: 476 nM
  TGI: > 100000 nM
HCC-2998 colon
  GI50: 440 nM
  TGI: > 100000 nM
CCRF-CEM leukemia
  GI50: 325 nM
  TGI: 19800 nM
MDA-MB-468 breast
  GI50: 173 nM
  TGI: 2380 nM
NCI-H226 lung
  GI50: 207 nM
  TGI: 3330 nM
UO-31 renal
  GI50: 654 nM
  TGI: > 100000 nM
NCI-H522 lung
  GI50: 159 nM
  TGI: 8130 nM
RXF 393 renal
  GI50: 212 nM
  TGI: 2130 nM
